Values after ≈ are worked out from the molar mass of the structure shown.
Columns and labels:
Assay type in all cases: functional
[1] = system: Staphylococcus aureus; test: Antibacterial activity against methicillin-resistant Staphylococcus aureus 20339 clinical isolate after 20 to 24 hrs by two-fold microdilution method
[2] = system: Staphylococcus aureus; test: Antibacterial activity against methicillin-resistant Staphylococcus aureus 504008 clinical isolate after 20 to 24 hrs by two-fold microdilution method
[3] = system: Staphylococcus aureus; test: Antibacterial activity against methicillin-resistant Staphylococcus aureus 304243 clinical isolate after 20 to 24 hrs by two-fold microdilution method
[4] = system: Staphylococcus aureus; test: Antibacterial activity against methicillin-resistant Staphylococcus aureus 908046 clinical isolate after 20 to 24 hrs by two-fold microdilution method
[5] = system: Staphylococcus aureus; test: Antibacterial activity against methicillin-resistant Staphylococcus aureus 125025 clinical isolate after 20 to 24 hrs by two-fold microdilution method
[6] = system: Staphylococcus aureus; test: Antibacterial activity against methicillin-resistant Staphylococcus aureus 122045 clinical isolate after 20 to 24 hrs by two-fold microdilution method
[7] = system: Staphylococcus aureus; test: Antibacterial activity against methicillin-resistant Staphylococcus aureus 1024004-2 clinical isolate after 20 to 24 hrs by two-fold microdilution method
[8] = system: Staphylococcus aureus; test: Potency index, ratio of vancomycin MIC to test compound MIC for […] Staphylococcus aureus ATCC 25923
[9] = system: Staphylococcus aureus; test: Antibacterial activity against methicillin-resistant Staphylococcus aureus 20106-2 clinical isolate after 20 to 24 hrs by two-fold microdilution method
[10] = system: Staphylococcus aureus; test: Antibacterial activity against methicillin-resistant Staphylococcus aureus 1019240 clinical isolate after 20 to 24 hrs by two-fold microdilution method
[11] = system: Staphylococcus aureus; test: Antibacterial activity against methicillin-resistant Staphylococcus aureus 11819 clinical isolate after 20 to 24 hrs by two-fold microdilution method
[12] = system: Staphylococcus aureus; test: Antibacterial activity against methicillin-resistant Staphylococcus aureus 118038 clinical isolate after 20 to 24 hrs by two-fold microdilution method
[13] = system: Staphylococcus aureus; test: Antibacterial activity against methicillin-resistant Staphylococcus aureus 110834 clinical isolate after 20 to 24 hrs by two-fold microdilution method
[14] = system: Staphylococcus aureus; test: Antibacterial activity against methicillin-resistant Staphylococcus aureus 316038 clinical isolate after 20 to 24 hrs by two-fold microdilution method
[15] = system: Staphylococcus epidermidis; test: Antibacterial activity against Staphylococcus epidermidis ATCC 12228 after 20 to 24 hrs by two-fold microdilution method
[16] = system: Staphylococcus aureus; test: Antibacterial activity against methicillin-resistant Staphylococcus aureus 1026211 clinical isolate after 20 to 24 hrs by two-fold microdilution method
[17] = system: Staphylococcus aureus; test: Antibacterial activity against methicillin-resistant Staphylococcus aureus 10844 clinical isolate after 20 to 24 hrs by two-fold microdilution method
[18] = system: Staphylococcus aureus; test: Potency index, ratio of vancomycin MIC50 to test compound MIC50 for methicillin-resistant Staphylococcus aureus
[19] = system: Staphylococcus aureus; test: Potency index, ratio of vancomycin MIC90 to test compound MIC90 for methicillin-resistant Staphylococcus aureus

Compound	MIC [1] [µg/mL]	MIC [2] [µg/mL]	MIC [3] [µg/mL]	MIC [4] [µg/mL]	MIC [5] [µg/mL]	MIC [6] [µg/mL]	MIC [7] [µg/mL]	Ratio [8]	MIC [9] [µg/mL]	MIC [10] [µg/mL]	MIC [11] [µg/mL]	MIC [12] [µg/mL]	MIC [13] [µg/mL]	MIC [14] [µg/mL]	MIC [15] [ng/mL]	MIC [16] [µg/mL]	MIC [17] [µg/mL]	Ratio [18]	Ratio [19]
CN1CCN(CCCCCCOC(=O)c2c3c(n4cc(Br)ccc24)C(=O)c2ncccc2C3=O)CC1	0.5 (≈ 0.903 µM)	0.125 (≈ 0.226 µM)	0.25 (≈ 0.452 µM)	0.063 (≈ 0.114 µM)	≤ 0.0078	0.063 (≈ 0.114 µM)	0.25 (≈ 0.452 µM)	256	0.25 (≈ 0.452 µM)	0.25 (≈ 0.452 µM)	0.063 (≈ 0.114 µM)	0.25 (≈ 0.452 µM)	0.125 (≈ 0.226 µM)	0.063 (≈ 0.114 µM)	≤ 7.8	≤ 0.0078	≤ 0.0078	–	–
O=C1c2cccnc2C(=O)c2c1c(C(=O)OCCCCN1CCOCC1)c1ccc(Br)cn21	0.5 (≈ 0.976 µM)	0.25 (≈ 0.488 µM)	0.125 (≈ 0.244 µM)	0.125 (≈ 0.244 µM)	0.25 (≈ 0.488 µM)	0.125 (≈ 0.244 µM)	0.5 (≈ 0.976 µM)	–	0.5 (≈ 0.976 µM)	1 (≈ 1.95 µM)	0.125 (≈ 0.244 µM)	0.5 (≈ 0.976 µM)	0.25 (≈ 0.488 µM)	0.25 (≈ 0.488 µM)	≤ 7.8	0.063 (≈ 0.123 µM)	0.5 (≈ 0.976 µM)	–	–
CN(C)CCCCCOC(=O)c1c2c(n3cc(Br)ccc13)C(=O)c1ncccc1C2=O	0.5 (≈ 1.03 µM)	0.5 (≈ 1.03 µM)	0.25 (≈ 0.516 µM)	0.063 (≈ 0.13 µM)	0.5 (≈ 1.03 µM)	0.25 (≈ 0.516 µM)	0.5 (≈ 1.03 µM)	256	1 (≈ 2.06 µM)	0.5 (≈ 1.03 µM)	0.125 (≈ 0.258 µM)	0.25 (≈ 0.516 µM)	0.5 (≈ 1.03 µM)	0.25 (≈ 0.516 µM)	≤ 7.8	0.063 (≈ 0.13 µM)	0.25 (≈ 0.516 µM)	–	–
O=C1c2cccnc2C(=O)c2c1c(C(=O)OCCCCCN1CCOCC1)c1ccc(Br)cn21	0.063 (≈ 0.12 µM)	0.063 (≈ 0.12 µM)	0.031 (≈ 0.0589 µM)	0.031 (≈ 0.0589 µM)	≤ 0.0078	0.063 (≈ 0.12 µM)	0.125 (≈ 0.237 µM)	–	0.125 (≈ 0.237 µM)	0.031 (≈ 0.0589 µM)	≤ 0.0078	≤ 0.0078	0.031 (≈ 0.0589 µM)	0.031 (≈ 0.0589 µM)	≤ 7.8	≤ 0.0078	≤ 0.0078	–	–
O=C1c2cccnc2C(=O)c2c1c(C(=O)OCCCCCCN1CCOCC1)c1ccc(Br)cn21	≤ 0.0078	≤ 0.0078	0.031 (≈ 0.0574 µM)	≤ 0.0078	≤ 0.0078	≤ 0.0078	≤ 0.0078	256	≤ 0.0078	≤ 0.0078	≤ 0.0078	≤ 0.0078	≤ 0.0078	≤ 0.0078	≤ 7.8	≤ 0.0078	≤ 0.0078	–	–
O=C1c2cccnc2C(=O)c2c1c(C(=O)OCCCCCCN1CCCCC1)c1ccc(Br)cn21	0.125 (≈ 0.232 µM)	0.063 (≈ 0.117 µM)	0.016 (≈ 0.0297 µM)	0.031 (≈ 0.0576 µM)	0.125 (≈ 0.232 µM)	0.031 (≈ 0.0576 µM)	0.063 (≈ 0.117 µM)	–	0.063 (≈ 0.117 µM)	0.125 (≈ 0.232 µM)	0.063 (≈ 0.117 µM)	0.063 (≈ 0.117 µM)	0.063 (≈ 0.117 µM)	0.031 (≈ 0.0576 µM)	≤ 7.8	0.063 (≈ 0.117 µM)	0.063 (≈ 0.117 µM)	16	16

From ChEMBL document CHEMBL4004803, “Syntheses and antibacterial activity of soluble 9-bromo substituted indolizinoquinoline-5,12-dione derivatives” (Eur J Med Chem, 2017)
